Where “and” joins values, the source holds several entries; their conditions need not be identical. Equal values may be shown once.
Tests used:
Type in all cases: cell-based
[1] = target: T1, hRXRα (Homo sapiens, UniProt P19793); assay: DR1-TK-LUC reporter assay, RXRα; settings: saturating concentrations, HEK293 cells
T1 construct: expressed in transfected cells; host or cells: HEK293
T1 sequence (P19793 1-462): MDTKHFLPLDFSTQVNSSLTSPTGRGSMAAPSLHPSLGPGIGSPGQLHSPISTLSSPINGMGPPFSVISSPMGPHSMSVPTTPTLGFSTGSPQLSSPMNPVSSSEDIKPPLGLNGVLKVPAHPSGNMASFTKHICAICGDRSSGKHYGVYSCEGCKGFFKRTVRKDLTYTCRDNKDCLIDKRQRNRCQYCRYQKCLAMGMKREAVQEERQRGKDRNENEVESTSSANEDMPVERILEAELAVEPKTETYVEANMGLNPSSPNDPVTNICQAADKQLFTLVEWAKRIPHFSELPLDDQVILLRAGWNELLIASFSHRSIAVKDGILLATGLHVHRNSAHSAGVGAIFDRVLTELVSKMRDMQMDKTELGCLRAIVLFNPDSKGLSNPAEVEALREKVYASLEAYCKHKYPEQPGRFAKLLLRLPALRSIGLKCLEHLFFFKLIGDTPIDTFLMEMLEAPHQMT

[2] = target: T2, PPARδ (Mus musculus, UniProt P35396); assay: PPRE-TK-LUC reporter transient transfection, PPARδ; settings: 20 μM AJA (FIG. 3C)
T2 construct: expressed in transfected cells; host or cells: HEK293 / HEK293T
T2 sequence (P35396 1-440): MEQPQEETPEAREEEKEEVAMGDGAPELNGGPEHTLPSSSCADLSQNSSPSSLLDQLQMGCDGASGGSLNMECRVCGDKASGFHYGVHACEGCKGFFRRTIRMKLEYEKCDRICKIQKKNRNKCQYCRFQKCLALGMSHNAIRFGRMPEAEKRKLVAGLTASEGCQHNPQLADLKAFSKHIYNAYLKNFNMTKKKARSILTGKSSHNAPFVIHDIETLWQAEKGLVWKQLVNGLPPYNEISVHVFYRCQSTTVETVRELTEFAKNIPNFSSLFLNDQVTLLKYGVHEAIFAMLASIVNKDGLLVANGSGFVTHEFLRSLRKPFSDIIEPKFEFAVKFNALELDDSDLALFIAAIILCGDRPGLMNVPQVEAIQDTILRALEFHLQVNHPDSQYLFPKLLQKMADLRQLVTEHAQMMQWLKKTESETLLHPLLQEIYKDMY
Description: For PPARγ activation assay, HEK293 cells were plated in 12-well cell culture plates and maintained in Dulbecco's modified Eagle's medium (DMEM) supplemented with 10% fetal bovine serum (FBS) at 37° C. under 5% CO2. Cells were changed to phenol red-free DMEM supplemented with 10% charcoal-stripped fetal bovine serum 3 hours before transfection by a standard calcium-phosphate precipitation method. Twelve hours after transfection, the cells were washed with phosphate-buffered saline (PBS) and fed again with fresh medium containing the indicated concentrations of compounds. After 36 hours, cells were harvested for β-galactosidase and luciferase activities as described previously (Li et al., Proc Natl Acad Sci USA 94:8479-84, 1997). The average normalized luciferase activity was determined via triplicate experiments. For IL-8 promoter assay, HeLa cells were maintained and transfected in the same way as described above. After transfection, cells were recovered for 4 hours before treatment with AJA, GW347845, or solvent. After 3-4 hours, cells were treated with or without 25 nM of phorbol myristate acetate (PMA) for 24 hours.
In an effort to confirm that AJA activates PPARγ selectively, the ability of AJA to activate PPARα and PPARδ was analyzed in a similar transient transfection assay.

[3] = target: T3, Gal4-DBD/mPPARγ (Mus musculus, UniProt P37238); assay: Gal4-dependent MH100-Luc reporter, Gal4-DBD/mPPARγ; settings: HEK293 cells
T3 construct: expressed in transfected cells; host or cells: HEK293
T3 sequence (P37238 1-475 isoform P37238-2): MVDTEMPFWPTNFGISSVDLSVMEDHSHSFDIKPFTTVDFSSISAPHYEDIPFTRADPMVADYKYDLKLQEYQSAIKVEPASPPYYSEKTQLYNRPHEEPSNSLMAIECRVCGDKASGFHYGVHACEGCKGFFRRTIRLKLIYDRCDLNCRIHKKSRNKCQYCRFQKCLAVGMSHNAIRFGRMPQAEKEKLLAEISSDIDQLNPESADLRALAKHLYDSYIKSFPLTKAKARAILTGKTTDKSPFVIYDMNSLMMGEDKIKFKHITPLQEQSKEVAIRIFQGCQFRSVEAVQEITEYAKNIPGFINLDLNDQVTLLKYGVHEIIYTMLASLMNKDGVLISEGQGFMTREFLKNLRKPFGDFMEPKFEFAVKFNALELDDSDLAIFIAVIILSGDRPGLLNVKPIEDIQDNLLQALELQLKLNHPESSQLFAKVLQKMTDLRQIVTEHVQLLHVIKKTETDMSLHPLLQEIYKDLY
Description: The-pCMX-Gal4-mPPARγ1 was constructed by fusing the mPPARγ1 coding sequence to the yeast GAL4 DNA binding domain (amino acid 1-147) in the pCMX vector. The AF-2 helix-truncated mutant of mPPARγ1 (PPARγ ΔAF2) was generated by PCR amplification-to introduce a stop codon and a NheI restriction site after amino acid 489, and then-subcloned into the pCMX vector. The PPRE-TK-LUC, MH100-TK-LUC-and DR1-TK-LUC reporters have been described previously (Forman et al., Cell 83:803-812, 1995; Umesono et al., Cell 65:1255-1266, 1991).
For PPARγ activation assay, HEK293 cells were plated in 12-well cell culture plates and maintained in Dulbecco's modified Eagle's medium (DMEM) supplemented with 10% fetal bovine serum (FBS) at 37° C. under 5% CO2. […] The average normalized luciferase activity was determined via triplicate experiments. […]
To further confirm activation of PPARγ by AJA, and also to determine PPARγ species specificity, the ability of AJA to activate the chimeric Gal4-DBD/PPAR fusion proteins on a Gal4-dependent MH100-Luc reporter was assessed (FIG. 4A). The PPARs were expressed as Gal4 DBD fusion proteins, which bind to the UAS promoter containing 4 copies of a synthetic Gal4 binding site upstream of the minimal thymidine kinase (TK) promoter. […]

SMILES: CCCCCCC(C)(C)c1cc(O)c2c(c1)OC(C)(C)[C@@H]1CC=C(C(=O)O)C[C@@H]21 [AJA, dimethylheptyl-THC-11-oic acid]
- activation of reporter via RXRα [1]: failed to activate the reporter
- activation of PPARδ [2]: neither did AJA activate PPARδ
- activation of Gal4-DBD/mPPARγ reporter gene expression ([3]; 20 μM AJA): activated the reporter gene expression significantly
- EC50 ([3]; EC-50 for activation of PPARγ, estimated, 10-60 μM AJA, luciferase activity): ~13 µM and 13 µM

Reference: US20040186166A1, “Cannabinoid analogs as peroxisome proliferator activated nuclear receptor gamma activators” (priority 2002, published 2004)
